# Reference: publication PMC5607274, “An iterative compound screening contest method for identifying target protein inhibitors using the tyrosine-protein kinase Yes” (Scientific Reports, 2017)
# Target: T1, human recombinant Yes [a.a. 2–543 (end)] (Homo sapiens, UniProt P07947)
# T1 construct: human recombinant Yes [a.a; 2–543 (end)]; purchased BPS Bioscience 40488
# Experiment: ADP-Glo kinase assay, inhibition rates of Yes phosphorylation activity (first and second screening)
# Assay type: biochemical
# Settings: first screening; mean of n = 4 wells; 10 μmol L−1 compound
# Protocol: All inhibitory assays of the phosphorylation activity of Yes were performed in accordance with the Promega Technical Manual for the ADP-Glo™ Kinase Assay (Fitchburg, WI, USA. Catalog number: V9102). The human recombinant Yes [a.a. 2–543 (end)] was purchased from BPS Bioscience (catalog number: 40488). The details of the assay protocol and reagent information are given elsewhere.
# The screening was conducted in three steps consisting of the first screening, the second screening, and the IC50 determination, as can be illustrated in Fig. 1b. First, we determined the inhibition rates of the 1,991 compounds. Each compound was placed in 4 wells of a 384-well plate. In total, 80 compounds were assayed on one plate and the other wells were used for positive and negative controls. The compounds were randomly placed on plates so that compounds proposed by one group were not placed on a plate together. A mean of four inhibition rates for each compound was compared to criteria for the first screening. […] Second, the inhibition rates of the screened compounds were determined on one plate using the same procedure of the first screening, where compounds were dissolved from fresh powder. […] Screened compounds were then evaluated for their IC50 values.
# T1 sequence (P07947 2-543): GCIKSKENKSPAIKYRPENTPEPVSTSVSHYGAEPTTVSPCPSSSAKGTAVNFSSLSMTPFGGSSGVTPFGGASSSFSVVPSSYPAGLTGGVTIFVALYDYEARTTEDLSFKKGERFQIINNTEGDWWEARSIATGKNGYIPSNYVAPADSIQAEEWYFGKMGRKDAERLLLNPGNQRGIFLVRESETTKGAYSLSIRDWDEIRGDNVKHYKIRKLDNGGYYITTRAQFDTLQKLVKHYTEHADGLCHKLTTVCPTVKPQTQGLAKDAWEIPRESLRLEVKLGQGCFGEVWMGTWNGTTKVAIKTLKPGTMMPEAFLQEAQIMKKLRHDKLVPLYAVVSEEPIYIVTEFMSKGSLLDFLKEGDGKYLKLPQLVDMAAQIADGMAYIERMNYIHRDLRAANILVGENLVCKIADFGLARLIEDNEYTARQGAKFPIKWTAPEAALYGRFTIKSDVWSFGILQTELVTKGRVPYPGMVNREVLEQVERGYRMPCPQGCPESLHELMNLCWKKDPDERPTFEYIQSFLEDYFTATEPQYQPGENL
row,SMILES,First screening IR (inhibition rate)
1,Cc1cccc(NC(=O)CNC(=O)c2cn3c(C)cccc3n2)c1C [Compound Z27271554],3%
2,Cc1cc(OCC(=O)NC(C)c2ccc(-n3ccnc3)cc2)ccc1C(C)C (stereo not shown) [Compound Z27305591],-7%
3,COc1cc(C(=O)NC(C)c2ccc(-n3ccnc3)cc2)cc(Cl)c1OC(C)C (stereo not shown) [Compound Z27306302],7%
4,CC(NC(=O)C(NC(=O)c1ccco1)C(C)C)c1ccc(-n2ccnc2)cc1 (stereo not shown) [Compound Z27306758],4%
5,Cc1ccc(C(C)C)c(OCC(=O)NC(C)c2ccc(-n3ccnc3)cc2)c1 (stereo not shown) [Compound Z27307326],11%
6,CCc1ccccc1NC(=O)CNC(=O)c1cc2ccccc2[nH]1 [Compound Z27562098],48%
7,CCOc1ccc(-n2c(O)c3ccc(C(=O)N=C4N=c5ccccc5=N4)cc3c2O)cc1 [Compound Z27664836],-4%
8,O=C(Nc1nc2ccccc2[nH]1)c1ccc(N2CCCC2=O)cc1 [Compound Z27664887],8%
9,CC(=O)c1cccc(OCC(=O)Nc2nc3ccccc3[nH]2)c1 [Compound Z27665121],-6%
10,O=C(COc1ccc2ccccc2c1)Nc1nc2ccccc2[nH]1 [Compound Z27666510],8%
11,COc1ccc2c(c1)c(CC(=O)N1CCN(Cc3ccccc3)CC1)c(C)n2C(=O)c1ccc(Cl)cc1 [Compound Z27764077],10%
12,Cc1ccc(C)c(N2C(=O)c3ccc(C(=O)Nc4ccc(N5CCN(C)CC5)cc4C)cc3C2=O)c1 [Compound Z27972425],8%
13,COc1ccc(CN2C(=O)c3ccccc3C2=O)cc1C(=O)Nc1ccc(N2CCN(C)CC2)cc1C [Compound Z27972767],17%
14,COc1ccc(-c2cc(C(=O)Nc3ccc(N4CCN(C)CC4)cc3C)c3ccccc3n2)cc1OC [Compound Z27974061],3%
15,Cc1nn(Cc2ccc(F)cc2)c2sc(C(=O)Nc3ccc(N4CCOCC4)cc3N3CCOCC3)cc12 [Compound Z28027525],3%
16,O=C(Nc1ccc(N2CCOCC2)cc1N1CCOCC1)c1ccc(N2C(=O)CCC2=O)cc1 [Compound Z28028679],-4%
17,Cc1ccc(-n2nc(C)c3c(C(=O)Nc4nc(CN5CCOCC5)cs4)cc(-c4ccccc4)nc32)cc1 [Compound Z28032810],-1%
18,Cc1cc(C)c(NC(=O)c2cn3c4c(c(N5CCN(C)CC5)c(F)cc4c2=O)OCC3C)c(C)c1 (stereo not shown) [Compound Z28129480],9%
19,Cc1nc2ccc(NC(=O)c3cc4ccccc4oc3=O)cc2s1 [Compound Z28296849],13%
20,CCOc1ccc(CCNC(=O)c2cc3ccccc3[nH]2)cc1OCC [Compound Z28450151],-5%
21,CN1CCC(N(C)S(=O)(=O)c2ccc(NC(=O)Cc3ccc(F)cc3)cc2)CC1 [Compound Z28459327],13%
22,Cc1c(C(=O)Nc2ccnn2C2CCCC2)oc2c(Cl)cccc12 [Compound Z28468306],0%

row,SMILES,First screening IR (inhibition rate)
1,CC(NC(=O)CCc1nc2ccccc2c(=O)[nH]1)c1cccc(C(F)(F)F)c1 (stereo not shown) [Compound Z28541828],-5%
2,CC(NC(=O)c1ccc2nc[nH]c2c1)c1ccc(F)c(F)c1 (stereo not shown) [Compound Z28547957],-1%
3,O=C(Nc1nnc(SCc2ccc(F)cc2)s1)c1cccnc1Cl [Compound Z28653555],3%
4,N#Cc1ccc(C(=O)Nc2nc(-c3ccc(F)c(F)c3)cs2)cc1 [Compound Z28714833],16%
5,CCC(NC(=O)c1cc2c(cc1Cl)N1CCCCCC1=NS2(=O)=O)c1ccc(C)cc1 (stereo not shown) [Compound Z28877665],2%
6,O=C(Cc1ccc(F)cc1)N1CCN(S(=O)(=O)Cc2ccccc2)CC1 [Compound Z28905033],-2%
7,CCCn1c(NC(=O)c2ccc3c(c2)NC(=O)C(C)S3)nc2ccccc21 (stereo not shown) [Compound Z29076459],51%
8,N#Cc1ccsc1NC(=O)CCCSc1nc2ccccc2[nH]1 [Compound Z29082077],16%
9,CCN(CC)CCn1c(NC(=O)c2cc3c(C)nn(-c4ccc(Cl)cc4)c3s2)nc2ccccc21 [Compound Z29249972],-12%
10,CCN(c1ccccc1)S(=O)(=O)c1ccc(C(=O)Nc2ccc(S(=O)(=O)N(C)C)cc2)cc1 [Compound Z29267150],2%
11,Cc1cnc(NC(=O)CCCc2nc3ccccc3c(=O)[nH]2)s1 [Compound Z29324663],9%
12,Cc1nn(CC(C)C)c2sc(C(=O)Nc3nc(-c4ccccn4)cs3)cc12 [Compound Z29467100],0%
13,CC(C)(C)C1CCC(C(=O)Nc2nc(-c3ccccn3)cs2)CC1 (stereo not shown) [Compound Z29467784],7%
14,COc1cccc2cc(C(=O)N3CCN(S(=O)(=O)c4ccccc4C(F)(F)F)CC3)c(=O)oc12 [Compound Z29531247],18%
15,CN(c1ccc(OC(=O)C23CC4CC(CC(Cl)(C4)C2)C3)cc1)S(=O)(=O)c1ccccc1F [Compound Z29631119],5%
16,CC(=O)NC12CC3CC(C1)CC(C(=O)Oc1ccc(N(C)S(=O)(=O)c4cc(C)ccc4C)cc1)(C3)C2 [Compound Z29631809],1%
17,O=C(/C=C/c1cn(-c2ccccc2)nc1-c1cccnc1)N1CC=C(c2ccccc2)CC1 [Compound Z29699890],10%
18,Cc1cc(F)ccc1NC(=O)C(C)Oc1cccc(Cl)c1 (stereo not shown) [Compound Z29827650],11%
19,O=C(NCc1cccc(C(F)(F)F)c1)c1n[nH]c(=O)c2ccccc12 [Compound Z29859952],6%
20,Cc1cc(NC(=O)C(C)SCC(=O)Nc2cccc3ncccc23)no1 (stereo not shown) [Compound Z29903633],-3%
21,CCOC(=O)c1sc(-c2cccc([N+](=O)[O-])c2)cc1NC(=O)CCc1ccccc1 [Compound Z29956667],-1%
22,Cc1nn(-c2ccccc2)c2sc(C(=O)NCc3ccccn3)cc12 [Compound Z30166588],1%

row,SMILES,First screening IR (inhibition rate)
1,O=C(NCCCn1ccnc1)C1CCN(C(=O)c2ccc(F)cc2)CC1 [Compound Z30216742],41%
2,CCCOc1c(Br)cc(C(=O)Nc2cccc(S(=O)(=O)N(CC)CC)c2)cc1OC [Compound Z30220173],20%
3,O=C(CCCSc1nc2ccccc2[nH]1)Nc1ccc(-c2nc3ccccc3[nH]2)cc1 [Compound Z30270226],17%
4,O=C(NCCSc1ccc(Br)cc1)c1ccc2nc[nH]c2c1 [Compound Z30463043],7%
5,O=C(Nc1cccc(C(F)(F)F)c1)c1cccc(NC(=O)c2cnccn2)c1 [Compound Z30576843],14%
6,COc1ccc(-c2cc(C(=O)OCc3ccccn3)c3ccccc3n2)cc1OC [Compound Z30610492],-9%
7,NC(=O)NCc1ccc(C(=O)N2CCN(c3ncc(C(F)(F)F)cc3Cl)CC2)cc1 [Compound Z30640594],4%
8,C=CCN1C(=O)c2ccc(C(=O)Nc3cc(C)cc(C)c3)cc2C1=O [Compound Z30888972],20%
9,CC(=O)c1ccc(-c2ccc(C(=O)Nc3cc(F)ccc3C)o2)cc1 [Compound Z30903878],-3%
10,CCOC(=O)c1c(NC(=O)CN2CCN(c3cccc(Cl)c3)CC2)sc(Cc2ccc3c(c2)OCO3)c1C [Compound Z30983122],12%
11,Cc1sc2nc(CN3CCOCC3)nc(Oc3ccc(NC(=O)c4ccc(C(C)(C)C)cc4)cc3)c2c1C [Compound Z31089732],-13%
12,CN(C)c1ccc(C(CNc2ncccc2C#N)c2c[nH]c3ccccc23)cc1 (stereo not shown) [Compound Z31123519],0%
13,Cc1sc2nc(CSc3ccccc3)nc(N3CCCC3C(N)=O)c2c1C (stereo not shown) [Compound Z31132453],9%
14,Cc1sc2nc(CN3CCCC3)nc(N(C)CC(=O)Nc3ccc(N4CCOCC4)cc3)c2c1C [Compound Z31148700],45%
15,CCCN1CCN(c2ccc(S(=O)(=O)NC3CCC(C)CC3)cc2[N+](=O)[O-])CC1 (stereo not shown) [Compound Z31152357],-14%
16,COc1ccc(Cl)cc1NC(=O)CN(C)c1nc(CN2CCOCC2)nc2sc3c(c12)CCC(C)C3 (stereo not shown) [Compound Z31158506],7%
17,CCN(CC)S(=O)(=O)c1ccc(N2CCN(S(=O)(=O)c3ccccc3C#N)CC2)nc1 [Compound Z31169752],6%
18,Cc1sc2ncnc(Nc3ccc4c(c3)OCO4)c2c1C [Compound Z31191207],14%
19,CN(Cc1ccccc1)c1nc(CN2CCOCC2)nc2sc3c(c12)CCC3 [Compound Z31196583],8%
20,Cc1sc2nc(-c3cccnc3)nc(N3CCOCC3)c2c1-c1ccccc1 [Compound Z31211547],13%
